# Laboratory results reported in the NIST ThermoML archive (doi:10.1021/je1005054).
# Numbers after ± are expanded uncertainties.
# Conditions: Liquid, Calculated from knudsen effusion weight loss
compound,measurement,setting,value
O=C1CCCCCN1 [1-aza-2-cycloheptanone],vapor or sublimation pressure,343 K,0.0263 ± 0.0041 kPa
same,vapor or sublimation pressure,347.9 K,0.0372 ± 0.006 kPa
same,vapor or sublimation pressure,348 K,0.0374 ± 0.006 kPa
same,vapor or sublimation pressure,352.9 K,0.0523 ± 0.0086 kPa
same,vapor or sublimation pressure,353 K,0.0527 ± 0.0087 kPa
